Active and inactive are the calls of the source. No rule for the calls is given here.
System: CCRIS mutagenicity, Ames/micronucleus/aberration tests
Assay: CCRIS mutagenicity studies
[1] = Test System: AMES SALMONELLA TYPHIMURIUM, Strain/Indicator: TA98, Metabolic Activation: NONE, Method: STANDARD PLATE
[2] = Test System: AMES SALMONELLA TYPHIMURIUM, Strain/Indicator: TA100, Metabolic Activation: NONE, Method: STANDARD PLATE
[3] = Test System: MOUSE LYMPHOMA, Strain/Indicator: L5178Y (TK+/TK-), Metabolic Activation: NONE, Method: SUSPENSION/PLATE
[4] = Test System: MOUSE LYMPHOMA, Strain/Indicator: L5178Y (TK+/TK-), Metabolic Activation: RAT, LIVER, S-9, AROCLOR 1254, Method: SUSPENSION/PLATE

Measured: mutagenic call

Clc1cc(Cl)c(Cl)cc1Cl
inactive: End Point: IN VITRO CHROMOSOMAL ABERRATIONS, Test System: CHO-LB CELLS, Metabolic Activation: NONE inactive; negative | End Point: IN VITRO CHROMOSOMAL ABERRATIONS, Test System: CHO-LB CELLS, Metabolic Activation: RAT, LIVER, S-9, AROCLOR 1254 inactive; negative | Test System: AMES SALMONELLA TYPHIMURIUM, Strain/Indicator: TA98, Metabolic Activation: HAMSTER, LIVER, S-9, AROCLOR 1254, Method: STANDARD PLATE inactive; negative | [1] inactive; negative | Test System: AMES SALMONELLA TYPHIMURIUM, Strain/Indicator: TA98, Metabolic Activation: RAT, LIVER, S-9, AROCLOR 1254, Method: STANDARD PLATE inactive; negative | Test System: AMES SALMONELLA TYPHIMURIUM, Strain/Indicator: TA100, Metabolic Activation: HAMSTER, LIVER, S-9, AROCLOR 1254, Method: STANDARD PLATE inactive; negative | [2] inactive; negative | Test System: AMES SALMONELLA TYPHIMURIUM, Strain/Indicator: TA100, Metabolic Activation: RAT, LIVER, S-9, AROCLOR 1254, Method: STANDARD PLATE inactive; negative | Test System: AMES SALMONELLA TYPHIMURIUM, Strain/Indicator: TA1535, Metabolic Activation: HAMSTER, LIVER, S-9, AROCLOR 1254, Method: STANDARD PLATE inactive; negative | Test System: AMES SALMONELLA TYPHIMURIUM, Strain/Indicator: TA1535, Metabolic Activation: NONE, Method: STANDARD PLATE inactive; negative | Test System: AMES SALMONELLA TYPHIMURIUM, Strain/Indicator: TA1535, Metabolic Activation: RAT, LIVER, S-9, AROCLOR 1254, Method: STANDARD PLATE inactive; negative | Test System: AMES SALMONELLA TYPHIMURIUM, Strain/Indicator: TA1537, Metabolic Activation: HAMSTER, LIVER, S-9, AROCLOR 1254, Method: STANDARD PLATE inactive; negative | Test System: AMES SALMONELLA TYPHIMURIUM, Strain/Indicator: TA1537, Metabolic Activation: NONE, Method: STANDARD PLATE inactive; negative | Test System: AMES SALMONELLA TYPHIMURIUM, Strain/Indicator: TA1537, Metabolic Activation: RAT, LIVER, S-9, AROCLOR 1254, Method: STANDARD PLATE inactive; negative | Test System: AMES SALMONELLA TYPHIMURIUM, Strain/Indicator: TA1538, Metabolic Activation: HAMSTER, LIVER, S-9, AROCLOR 1254, Method: STANDARD PLATE inactive; negative | Test System: AMES SALMONELLA TYPHIMURIUM, Strain/Indicator: TA1538, Metabolic Activation: NONE, Method: STANDARD PLATE inactive; negative | Test System: AMES SALMONELLA TYPHIMURIUM, Strain/Indicator: TA1538, Metabolic Activation: RAT, LIVER, S-9, AROCLOR 1254, Method: STANDARD PLATE inactive; negative | [3] inactive; negative. reevaluation of results: negative | [4] inactive; negative. reevaluation of results: negative

ClCc1cccc2c1-c1cccc3cccc-2c13
active: [1] active; positive | [2] active; positive

O=C1C=CC(=O)c2ccccc21
inactive: Test System: AMES SALMONELLA TYPHIMURIUM, Strain/Indicator: TA97, Metabolic Activation: NONE, Method: PREINCUBATION inactive; negative | Test System: AMES SALMONELLA TYPHIMURIUM, Strain/Indicator: TA97, Metabolic Activation: NONE, Method: STANDARD PLATE inactive; negative | Test System: AMES SALMONELLA TYPHIMURIUM, Strain/Indicator: TA97, Metabolic Activation: RAT, LIVER, S-9, PCB, Method: STANDARD PLATE inactive; negative | Test System: AMES SALMONELLA TYPHIMURIUM, Strain/Indicator: TA98, Metabolic Activation: NONE, Method: PREINCUBATION inactive; negative | [1] inactive; negative | Test System: AMES SALMONELLA TYPHIMURIUM, Strain/Indicator: TA98, Metabolic Activation: RAT, LIVER, S-9, PCB, Method: STANDARD PLATE inactive; negative | Test System: AMES SALMONELLA TYPHIMURIUM, Strain/Indicator: TA98, Metabolic Activation: RAT, LIVER, S-9, PHENOBARBITAL AND 5,6-BENZOFLAVONE, Method: PREINCUBATION inactive; negative | [2] inactive; negative | Test System: AMES SALMONELLA TYPHIMURIUM, Strain/Indicator: TA100, Metabolic Activation: RAT, LIVER, S-9, PCB, Method: STANDARD PLATE inactive; negative | Test System: AMES SALMONELLA TYPHIMURIUM, Strain/Indicator: TA102, Metabolic Activation: NONE, Method: PREINCUBATION inactive; negative | Test System: AMES SALMONELLA TYPHIMURIUM, Strain/Indicator: TA1535, Metabolic Activation: NONE, Method: PREINCUBATION inactive; negative | Test System: AMES SALMONELLA TYPHIMURIUM, Strain/Indicator: TA1535, Metabolic Activation: RAT, LIVER, S-9, PHENOBARBITAL AND 5,6-BENZOFLAVONE, Method: PREINCUBATION inactive; negative | Test System: AMES SALMONELLA TYPHIMURIUM, Strain/Indicator: TA1537, Metabolic Activation: NONE, Method: PREINCUBATION inactive; negative | Test System: AMES SALMONELLA TYPHIMURIUM, Strain/Indicator: TA1537, Metabolic Activation: RAT, LIVER, S-9, PHENOBARBITAL AND 5,6-BENZOFLAVONE, Method: PREINCUBATION inactive; negative | Test System: AMES SALMONELLA TYPHIMURIUM, Strain/Indicator: TA1538, Metabolic Activation: NONE, Method: PREINCUBATION inactive; negative | Test System: AMES SALMONELLA TYPHIMURIUM, Strain/Indicator: TA1538, Metabolic Activation: RAT, LIVER, S-9, PHENOBARBITAL AND 5,6-BENZOFLAVONE, Method: PREINCUBATION inactive; negative | Test System: Ames Salmonella typhimurium, Strain/Indicator: TA97, Metabolic Activation: None, Method: Preincubation inactive; negative | Test System: Ames Salmonella typhimurium, Strain/Indicator: TA97, Metabolic Activation: Rat, Liver, S9, Aroclor 1254, Method: Preincubation inactive; negative | Test System: Ames Salmonella typhimurium, Strain/Indicator: TA98, Metabolic Activation: None, Method: Preincubation inactive; negative | Test System: Ames Salmonella typhimurium, Strain/Indicator: TA98, Metabolic Activation: Rat, Liver, S9, Aroclor 1254, Method: Preincubation inactive; negative | Test System: Ames Salmonella typhimurium, Strain/Indicator: TA100, Metabolic Activation: None, Method: Preincubation inactive; negative | Test System: Ames Salmonella typhimurium, Strain/Indicator: TA100, Metabolic Activation: Rat, Liver, S9, Aroclor 1254, Method: Preincubation inactive; negative | Test System: Ames Salmonella typhimurium, Strain/Indicator: TA102, Metabolic Activation: None, Method: Preincubation inactive; negative | Test System: Ames Salmonella typhimurium, Strain/Indicator: TA102, Metabolic Activation: Rat, Liver, S9, Aroclor 1254, Method: Preincubation inactive; negative
active: End Point: In vitro chromosomal aberrations, Test System: Chinese hamster lung (CHL/IU) cells, Metabolic Activation: Rat, Liver, S9, Phenobarbital and 5,6-benzoflavone active; positive (structural changes). toxic at 0.014 mg/ml. | Test System: AMES SALMONELLA TYPHIMURIUM, Strain/Indicator: TA97, Metabolic Activation: RAT, LIVER, S-9, PHENOBARBITAL AND 5,6-BENZOFLAVONE, Method: PREINCUBATION active; positive | Test System: AMES SALMONELLA TYPHIMURIUM, Strain/Indicator: TA100, Metabolic Activation: NONE, Method: PREINCUBATION active; positive | Test System: AMES SALMONELLA TYPHIMURIUM, Strain/Indicator: TA100, Metabolic Activation: RAT, LIVER, S-9, PHENOBARBITAL AND 5,6-BENZOFLAVONE, Method: PREINCUBATION active; positive | Test System: AMES SALMONELLA TYPHIMURIUM, Strain/Indicator: TA102, Metabolic Activation: RAT, LIVER, S-9, PHENOBARBITAL AND 5,6-BENZOFLAVONE, Method: PREINCUBATION active; positive | Test System: AMES SALMONELLA TYPHIMURIUM, Strain/Indicator: TA104, Metabolic Activation: NONE, Method: PREINCUBATION active; positive | Test System: AMES SALMONELLA TYPHIMURIUM, Strain/Indicator: TA104, Metabolic Activation: RAT, LIVER, S-9, PHENOBARBITAL AND 5,6-BENZOFLAVONE, Method: PREINCUBATION active; positive | Test System: AMES SALMONELLA TYPHIMURIUM, Strain/Indicator: TA2637, Metabolic Activation: NONE, Method: PREINCUBATION active; positive | Test System: AMES SALMONELLA TYPHIMURIUM, Strain/Indicator: TA2637, Metabolic Activation: RAT, LIVER, S-9, PHENOBARBITAL AND 5,6-BENZOFLAVONE, Method: PREINCUBATION active; positive

OC[C@H]1O[C@@](CO)(O[C@H]2O[C@H](CO)[C@@H](O)[C@H](O)[C@H]2O)[C@@H](O)[C@@H]1O
inactive: [3] inactive; negative | [4] inactive; negative | Test System: MOUSE LYMPHOMA, Strain/Indicator: L5178Y (TK+/TK-), Metabolic Activation: RAT, LIVER, S-9, Method: SUSPENSION/PLATE inactive; negative
active: End Point: IN VITRO CHROMOSOMAL ABERRATIONS, Test System: CHO-WBL CELLS, Metabolic Activation: NONE active; positive (structural changes); osmolality of solution decisive factor
